These results are taken from PubChem BioAssay (NCI).

Among the test systems are PC-3 prostate; HCT-116 colon; RXF 393 renal; OVCAR-8 ovarian; SN12C renal; SW-620 colon; SK-MEL-2 melanoma; DU-145 prostate; OVCAR-4 ovarian; UACC-257 melanoma.
Common to all, as to experiment: DTP human tumour cell line panel, 48 h

Structures are written as SMILES. Several values for one entry are separate records, joined by “and”; a condition that tells them apart may be missing. Equal entries are not always repeated.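 Following 48 hours of exposure in 96-well plates, responses at five concentrations were used to interpolate endpoints linearly. GI50 = concentration required for 50% inhibition of growth. TGI marks complete inhibition of growth.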 Where a SMILES comes first, the peptide text is derived from it. Bridges are numbered along the chain shown (N, C = ends). [ ]: non-standard residue; d: D form. The star is where a group is joined. ξ: configuration not given here. X26 = O=C(/C=C/C=C/C=C/C=C/C=C/C(=O)*)NC1=C(O)CCC1=O; NMeA = CN[C@@H](C)C(=O)O; ξF = NC(Cc1ccccc1)C(=O)O; ξA = CC(N)C(=O)O

On to `CC1(C)C2CC(=O)C1(C)C(O)C2Br` (configuration not stated), for which the TGI in the experiment on PC-3 prostate, with HCT-116 colon, in the experiment on RXF 393 renal, with OVCAR-8 ovarian, in the experiment on SN12C renal and in the experiment on SW-620 colon was above 100 µM throughout. Also, the TGI in the experiment on SK-MEL-2 melanoma and in the experiment on DU-145 prostate was above 100 µM each time.

As for `C(/C=C(\Nc1ccccc1)C12CC3CC(CC(C3)C1)C2)=Nc1ccccc1`, the TGI with PC-3 prostate turned out to be 33.1 µM; with OVCAR-4 ovarian, 48.8 µM; with HCT-116 colon it was 27 µM; with RXF 393 renal, 35.4 µM; in the experiment on OVCAR-8 ovarian it was 49.8 µM; in the experiment on SN12C renal it was 36.2 µM. In addition, the results for the total growth inhibition concentration (TGI) with SW-620 colon, with UACC-257 melanoma and with DU-145 prostate were 41.7 µM, 73.3 µM and 56.7 µM, respectively.

On to `N=C(N)c1ccc(-c2ccc(-c3cccs3)s2)cc1`, for which the GI50 in the experiment on PC-3 prostate is 1.62 µM; with OVCAR-4 ovarian, 1.71 µM; in the experiment with RXF 393 renal, 13.9 µM; in the experiment on OVCAR-8 ovarian, 1.79 µM; in the experiment with UACC-257 melanoma it was 1.72 µM; with SK-MEL-2 melanoma it was 13.4 µM. In addition, the GI50 in the experiment on DU-145 prostate was 1.68 µM. In addition, the TGI in the experiment with PC-3 prostate amounted to 3.15 µM; in the experiment with OVCAR-4 ovarian, 4.24 µM; with RXF 393 renal it was 35.5 µM; in the experiment with OVCAR-8 ovarian, 4.79 µM; with UACC-257 melanoma, 3.15 µM; in the experiment with SK-MEL-2 melanoma it was 32 µM. Further, in the experiment on DU-145 prostate, the total growth inhibition concentration (TGI) was found to be 3.14 µM.

For `COc1cc2c(cc1OC)[C@H]1CN3CCC[C@H]3C=C1c1ccc(OC)c(O)c1-2`, the TGI in the experiment with PC-3 prostate was 0.0269 µM; in the experiment on OVCAR-4 ovarian, 0.00362 µM; in the experiment on HCT-116 colon it was 0.00302 µM; in the experiment on RXF 393 renal it was 0.0437 µM; with OVCAR-8 ovarian, 0.0015 µM and 0.0123 µM; with UACC-257 melanoma, 0.00835 µM. For the same compound, the TGI in the experiment with SK-MEL-2 melanoma turned out to be 0.000975 µM; in the experiment with DU-145 prostate, 0.162 µM.

With `C/C1=C\CC[C@@]2(C)O[C@@H]2C[C@@H](C2(C)CO2)CC/C(C)=C/CC1` (some centres not stated), the TGI in the experiment with PC-3 prostate is 82.2 µM; in the experiment with OVCAR-4 ovarian it was above 100 µM; in the experiment with HCT-116 colon it was 45.5 µM; in the experiment on OVCAR-8 ovarian, 39.6 µM; in the experiment on SN12C renal, 33.5 µM; in the experiment on SW-620 colon it was above 100 µM. Besides, the figures for the TGI in the experiment on UACC-257 melanoma, in the experiment on SK-MEL-2 melanoma and with DU-145 prostate were above 100 µM, 71.8 µM and 48.8 µM, respectively.

As for `CC(C)(C)OC(=O)NCCC(N)=S`, the TGI in the experiment with PC-3 prostate, with HCT-116 colon, in the experiment with RXF 393 renal, in the experiment on OVCAR-8 ovarian, in the experiment with SN12C renal and with SW-620 colon was above 100 µM in each case. Besides, the total growth inhibition concentration (TGI) in the experiment with UACC-257 melanoma and with DU-145 prostate was above 100 µM in each case.

Regarding `C[C@@H](Cl)[C@H]1CCCN(Cc2ccc(Br)cc2)C1`, the TGI in the experiment on PC-3 prostate, in the experiment on OVCAR-4 ovarian, in the experiment with RXF 393 renal, with OVCAR-8 ovarian, with SW-620 colon and with UACC-257 melanoma was above 12.5 µM in each case. For the same compound, the TGI with SK-MEL-2 melanoma and in the experiment on DU-145 prostate was above 12.5 µM in each case.

In the case of `O=C(CNc1c(Cl)cccc1Cl)NC1C=Cc2ccc(S(=O)(=O)Nc3c(Cl)cccc3Cl)cc2C1=O` (configuration not stated), the concentration for total growth inhibition (TGI) in the experiment on PC-3 prostate, with OVCAR-4 ovarian, with HCT-116 colon, with OVCAR-8 ovarian, with SN12C renal and with SW-620 colon was above 100 µM in each case. The TGI in the experiment on UACC-257 melanoma, in the experiment on SK-MEL-2 melanoma and with DU-145 prostate was above 100 µM throughout.

Turning to `CC1CN=C(N(C(=O)Nc2ccc(F)c(Cl)c2)c2ccccc2)S1` (configuration not stated), the TGI in the experiment on PC-3 prostate is 95.5 µM; with OVCAR-4 ovarian, above 100 µM; with HCT-116 colon, 67.8 µM; with OVCAR-8 ovarian, 65.7 µM; in the experiment with SN12C renal it was 49.9 µM; in the experiment on SW-620 colon, 90.3 µM. In addition, the TGI in the experiment on UACC-257 melanoma is 58.7 µM; in the experiment on SK-MEL-2 melanoma, 32.8 µM; with DU-145 prostate, above 100 µM.

In the case of `C=C1c2cc3c(cc2CC12Cc1cc4c(cc1C2=O)CCC4)CCC3` (configuration not stated), the TGI in the experiment with PC-3 prostate, in the experiment on OVCAR-4 ovarian, in the experiment with HCT-116 colon, in the experiment on RXF 393 renal, in the experiment with OVCAR-8 ovarian and in the experiment on SW-620 colon was above 100 µM throughout. The TGI with UACC-257 melanoma, with SK-MEL-2 melanoma and in the experiment on DU-145 prostate was above 100 µM each time.

In the case of `CCOC(=O)c1nc2ccc(C(F)(F)F)cc2nc1Oc1ccc(C#N)cc1`, the TGI was 36 µM in the experiment on PC-3 prostate; 83.8 µM in the experiment with OVCAR-4 ovarian; above 100 µM in the experiment with HCT-116 colon; 37.8 µM in the experiment with RXF 393 renal; 46.4 µM in the experiment with OVCAR-8 ovarian; above 100 µM with SW-620 colon. The TGI came to 65.8 µM in the experiment with UACC-257 melanoma, 30.5 µM in the experiment on SK-MEL-2 melanoma and 38.1 µM with DU-145 prostate.

As for `Cc1ccc(CC[P+](=O)CCc2ccc(C)nc2)cn1`, the TGI in the experiment on PC-3 prostate, in the experiment on OVCAR-4 ovarian, in the experiment on HCT-116 colon, with RXF 393 renal, with OVCAR-8 ovarian and with SN12C renal was above 100 µM in each case. For the same compound, the TGI in the experiment on SW-620 colon, with UACC-257 melanoma and in the experiment with DU-145 prostate was above 100 µM throughout.

Turning to `CCc1c[n+]([O-])c(C)cc1[N+](=O)[O-]`, the TGI in the experiment on PC-3 prostate is above 100 µM; in the experiment on HCT-116 colon, above 100 µM; in the experiment with RXF 393 renal it was 60.9 µM; in the experiment on OVCAR-8 ovarian, above 100 µM; in the experiment on SN12C renal, above 100 µM; in the experiment on SW-620 colon, above 100 µM. Moreover, the TGI in the experiment on UACC-257 melanoma, in the experiment with SK-MEL-2 melanoma and with DU-145 prostate was above 100 µM in each case.

Take `CC1NC(=O)[C@H](C)N(C)C(=O)[C@@H]2CCCN2C(=O)[C@@H](NC(=O)C(Cc2ccccc2)NC(=O)/C=C/C=C/C=C/C=C/C=C/C(=O)NC2=C(O)CCC2=O)COC(=O)[C@@H]2CCCN2C1=O` (some centres not stated) (X26-[ξF]SP[NMeA][ξA]P; ester 2-C): the TGI in the experiment with PC-3 prostate, with OVCAR-4 ovarian, with HCT-116 colon, in the experiment with RXF 393 renal, in the experiment with SN12C renal and in the experiment with SW-620 colon was above 100 µM in each case. In addition, the TGI in the experiment on UACC-257 melanoma, in the experiment on SK-MEL-2 melanoma and with DU-145 prostate was above 100 µM each time.
